Drawing on ChEMBL document CHEMBL1201862, “PubChem BioAssay data set” (2004), this text covers IC50 and AC50 for seven compounds.

Molecules are shown by their SMILES. Calls of active or inactive are those of the source.

Data set [1] deals with SUMO E1/E2 (Homo sapiens, UniProt P63279+Q9UBE0+Q9UBT2). Description: SAR analysis of SUMOylation using HTRF in an in-Vitro dose response assay. [Related pubchem assays (depositor defined):AID2006, AID2011, AID2018, AID2069, AID2658]. The format is functional. (Time-resolved FRET reads energy transfer from a long-lived donor to a nearby acceptor.)
For data set [2], the target named is Lysine-specific demethylase 4A (Homo sapiens, UniProt O75164). Description: inhibition of JMJD2A H3K9me3 demethylation – biochemical, DELFIA europium, cherry-picked samples, selectivity assay for GASC-1 inhibitor project, dose response (AID 488840).
Data set [3] addresses Tyrosyl-DNA phosphodiesterase 2 (Homo sapiens, UniProt O95551). Description: potency against TDP2 phosphodiesterase activity – biochemical, epi absorbance, IC50, dose response (AID 743297).
Data set [4] concerns the target DNA dC->dU-editing enzyme APOBEC-3G (Homo sapiens, UniProt Q9HC16). The data set is described as follows: Dose Response confirmation of small molecule APOBEC3G DNA Deaminase Inhibitors via a fluorescence-based single-stranded DNA deaminase assay. [Related pubchem assays (depositor defined):AID493012, AID493028]. It counts as functional.
Data set [5] concerns the target Lysine-specific demethylase 4C (Homo sapiens, UniProt Q9H3R0). The data set is described as follows: inhibition of JMJD2C H3K9me3 demethylation – biochemical, DELFIA europium, cherry-picked samples, dose response (AID 488835). It counts as functional.
Data set [6] addresses Sphingosine 1-phosphate receptor 1 (Homo sapiens, UniProt P21453). The data set is described as follows: Late stage counterscreen assay for S1P4 antagonists: Fluorescence dose response cell-based screening assay for antagonists of the Sphingosine 1-Phosphate Receptor 1 (S1P1). [Related pubchem assays (depositor defined):AID1510, AID1524, AID1692, AID1853, AID2332, AID489009, AID489017]. It counts as functional. (In general: Counterscreens check selectivity or assay interference.)

Data set [7] concerns the target Sphingosine 1-phosphate receptor 3 (Homo sapiens, UniProt Q99500). Description: Late stage counterscreen assay for S1P4 antagonists: Fluorescence dose response cell-based screening assay for antagonists of the Sphingosine 1-Phosphate Receptor 3 (S1P3). [Related pubchem assays (depositor defined):AID1510, AID1524, AID1692, AID1853, AID2332, AID489009, AID489017]. The format is functional.

In data set [8] the target is Sphingosine 1-phosphate receptor 5 (Homo sapiens, UniProt Q9H228). The data set is described as follows: Late stage counterscreen assay for S1P4 antagonists: Fluorescence dose response cell-based screening assay for antagonists of the Sphingosine 1-Phosphate Receptor 5 (S1P5). [Related pubchem assays (depositor defined):AID1510, AID1524, AID1692, AID1853, AID2332, AID489009, AID489017]. The format is functional.

The target of data set [9] is T1, Sphingosine 1-phosphate receptor 4 (Homo sapiens, UniProt O95977).
T1 sequence (O95977 whole entry): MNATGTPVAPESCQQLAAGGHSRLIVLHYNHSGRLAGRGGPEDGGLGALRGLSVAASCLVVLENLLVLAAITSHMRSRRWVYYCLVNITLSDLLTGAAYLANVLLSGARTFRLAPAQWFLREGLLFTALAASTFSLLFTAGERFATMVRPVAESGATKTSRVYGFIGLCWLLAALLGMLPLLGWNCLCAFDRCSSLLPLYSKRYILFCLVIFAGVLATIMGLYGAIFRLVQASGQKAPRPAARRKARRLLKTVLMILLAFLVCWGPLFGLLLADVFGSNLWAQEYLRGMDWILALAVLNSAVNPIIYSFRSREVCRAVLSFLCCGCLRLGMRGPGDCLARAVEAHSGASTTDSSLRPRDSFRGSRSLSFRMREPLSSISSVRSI
The data set is described as follows: potency of S1P4 blockers – cell-based, fluorescence, synthesized analogues, late-stage follow-up (AID 2346). The format is functional.

Data set [10] deals with Sphingosine 1-phosphate receptor 2 (Homo sapiens, UniProt O95136). Description: Late stage counterscreen assay for S1P4 antagonists: Fluorescence dose response cell-based screening assay for antagonists of the Sphingosine 1-Phosphate Receptor 2 (S1P2). [Related pubchem assays (depositor defined):AID1510, AID1524, AID1692, AID1853, AID2332, AID489009, AID489017]. It counts as functional.

Data set [11] can be described thus: decrease of insulin promoter-GFP reporter – imaging, high-content screening, mouse beta cells (AID 1628). The format is functional. The settings on record: MIN6.
Data set [12] in a line: MIN6 cell viability loss – mouse insulinoma, cytotoxicity control, dose response (AID 2122).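 Also: confirmatory high-throughput counterscreen run to flag cytotoxic compounds.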 It counts as functional.
The nature of data set [13]: non-specific 3'UTR reporter inhibition in Clone20-Shn3RL – cell-based, Renilla luciferase, cherry-picked, counter-screen for Shn3 inhibitor project, dose response (AID 624133). The format is functional.
Data set [14] is described as follows: reduction of Shn3 3'UTR-driven luciferase in osteoblasts – cell-based, Clone20 osteoblasts, firefly luciferase, cherry-picked, dose response (AID 624132).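 Also: firefly luciferase luminescence from reporter carrying the Shn3 3'UTR in osteoblasts.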 It counts as functional.
A short description of data set [15]: loss of viability in HepG2 cells – cell-based, CellTiter-Glo, cherry-picked, cytotoxicity control for Shn3 inhibitor project, dose response (AID 624134). It counts as functional. (ATP-based viability assays read luminescence as a measure of living cells.)
The target of data set [16] is T2, Mannose-6-phosphate isomerase (Homo sapiens, UniProt P34949).
T2 sequence (P34949 whole entry): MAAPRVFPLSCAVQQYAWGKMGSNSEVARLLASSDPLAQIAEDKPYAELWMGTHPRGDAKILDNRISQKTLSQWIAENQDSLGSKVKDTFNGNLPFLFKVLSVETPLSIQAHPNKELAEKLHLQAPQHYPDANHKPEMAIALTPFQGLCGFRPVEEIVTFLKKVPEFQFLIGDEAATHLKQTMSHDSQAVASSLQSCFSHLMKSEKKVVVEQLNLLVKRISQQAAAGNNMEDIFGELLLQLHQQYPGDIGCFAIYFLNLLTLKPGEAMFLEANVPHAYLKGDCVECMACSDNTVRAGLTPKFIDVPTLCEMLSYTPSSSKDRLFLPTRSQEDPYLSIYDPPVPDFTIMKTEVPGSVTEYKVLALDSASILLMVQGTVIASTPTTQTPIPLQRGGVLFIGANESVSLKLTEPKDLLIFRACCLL
Description: phosphomannose isomerase inhibition – biochemical, fluorescence intensity, confirmation (AID 1535).

Data set [17] addresses Phosphoethanolamine/phosphocholine phosphatase (Homo sapiens, UniProt Q8TCT1). Description: SAR assay for compounds that inhibit PHOSPHO1. [Related pubchem assays (depositor defined):AID1545, AID1565, AID1574].
Data set [18] concerns the target T2, Mannose-6-phosphate isomerase. Description: Confirmation of compounds inhibiting phosphomannose isomerase (PMI) via a fluorescence intensity assay using a high concentration of mannose 6-phosphate. [Related pubchem assays (depositor defined):AID1209, AID1220, AID1545, AID1553, AID1620].
Data set [19] concerns the target Phosphomannomutase 2 (Homo sapiens, UniProt O15305). Description: Counter screen SAR assay for PMM2 inhibitors via a fluorescence intensity assay. [Related pubchem assays (depositor defined):AID1545, AID1574].
In data set [20] the target is T3, Cytochrome P450 1A2 (Homo sapiens, UniProt P05177).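 Also: PubChem cytochrome P450 panel assay, CYP1A2 panel member.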
T3 sequence (P05177 whole entry): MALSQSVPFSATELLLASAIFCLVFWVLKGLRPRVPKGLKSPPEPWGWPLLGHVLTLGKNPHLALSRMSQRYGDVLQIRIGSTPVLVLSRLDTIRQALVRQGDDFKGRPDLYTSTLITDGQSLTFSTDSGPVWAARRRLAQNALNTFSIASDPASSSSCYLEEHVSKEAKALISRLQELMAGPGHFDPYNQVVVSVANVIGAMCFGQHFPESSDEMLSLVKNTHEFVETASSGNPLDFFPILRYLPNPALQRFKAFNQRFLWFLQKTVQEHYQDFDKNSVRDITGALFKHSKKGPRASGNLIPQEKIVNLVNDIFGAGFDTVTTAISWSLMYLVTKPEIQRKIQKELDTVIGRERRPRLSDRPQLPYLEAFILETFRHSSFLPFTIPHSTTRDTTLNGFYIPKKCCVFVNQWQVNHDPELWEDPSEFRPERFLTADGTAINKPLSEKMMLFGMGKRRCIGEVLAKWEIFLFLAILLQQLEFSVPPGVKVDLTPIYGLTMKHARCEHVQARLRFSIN

The target of data set [21] is T4, CAAX prenyl protease 2 (Saccharomyces cerevisiae S288c, UniProt Q03530).
T4 sequence (Q03530 whole entry): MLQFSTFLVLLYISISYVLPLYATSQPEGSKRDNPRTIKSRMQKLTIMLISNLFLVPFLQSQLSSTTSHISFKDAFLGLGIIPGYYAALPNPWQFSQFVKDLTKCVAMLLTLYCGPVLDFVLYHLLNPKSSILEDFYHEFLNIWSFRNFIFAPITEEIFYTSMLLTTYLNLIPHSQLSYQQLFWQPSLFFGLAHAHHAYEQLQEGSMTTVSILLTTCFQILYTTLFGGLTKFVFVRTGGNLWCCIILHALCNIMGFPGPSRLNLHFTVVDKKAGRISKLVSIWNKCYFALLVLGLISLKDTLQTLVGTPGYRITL
It counts as biochemical.

The target of data set [22] is Trypsin (Sus scrofa, UniProt P00761). The data set is described as follows: trypsin protease activity blockade – biochemical, quenched peptide fluorescence, cherry-pick, selectivity assay for Rce1 protease inhibitor project, dose response (AID 488789).
The target of data set [23] is CAAX prenyl protease 1 (Saccharomyces cerevisiae S288c, UniProt P47154). The data set is described as follows: yeast CAAX protease Ste24 inhibition – biochemical, S. cerevisiae, plate reader, cherry-pick, dose response (AID 488815).

Broadly, the IC50 is the concentration that gives 50% inhibition. For orientation: AC50 means the concentration giving half of the maximal activity seen.

Lysine-specific demethylase 4C, sequence (Q9H3R0 whole entry): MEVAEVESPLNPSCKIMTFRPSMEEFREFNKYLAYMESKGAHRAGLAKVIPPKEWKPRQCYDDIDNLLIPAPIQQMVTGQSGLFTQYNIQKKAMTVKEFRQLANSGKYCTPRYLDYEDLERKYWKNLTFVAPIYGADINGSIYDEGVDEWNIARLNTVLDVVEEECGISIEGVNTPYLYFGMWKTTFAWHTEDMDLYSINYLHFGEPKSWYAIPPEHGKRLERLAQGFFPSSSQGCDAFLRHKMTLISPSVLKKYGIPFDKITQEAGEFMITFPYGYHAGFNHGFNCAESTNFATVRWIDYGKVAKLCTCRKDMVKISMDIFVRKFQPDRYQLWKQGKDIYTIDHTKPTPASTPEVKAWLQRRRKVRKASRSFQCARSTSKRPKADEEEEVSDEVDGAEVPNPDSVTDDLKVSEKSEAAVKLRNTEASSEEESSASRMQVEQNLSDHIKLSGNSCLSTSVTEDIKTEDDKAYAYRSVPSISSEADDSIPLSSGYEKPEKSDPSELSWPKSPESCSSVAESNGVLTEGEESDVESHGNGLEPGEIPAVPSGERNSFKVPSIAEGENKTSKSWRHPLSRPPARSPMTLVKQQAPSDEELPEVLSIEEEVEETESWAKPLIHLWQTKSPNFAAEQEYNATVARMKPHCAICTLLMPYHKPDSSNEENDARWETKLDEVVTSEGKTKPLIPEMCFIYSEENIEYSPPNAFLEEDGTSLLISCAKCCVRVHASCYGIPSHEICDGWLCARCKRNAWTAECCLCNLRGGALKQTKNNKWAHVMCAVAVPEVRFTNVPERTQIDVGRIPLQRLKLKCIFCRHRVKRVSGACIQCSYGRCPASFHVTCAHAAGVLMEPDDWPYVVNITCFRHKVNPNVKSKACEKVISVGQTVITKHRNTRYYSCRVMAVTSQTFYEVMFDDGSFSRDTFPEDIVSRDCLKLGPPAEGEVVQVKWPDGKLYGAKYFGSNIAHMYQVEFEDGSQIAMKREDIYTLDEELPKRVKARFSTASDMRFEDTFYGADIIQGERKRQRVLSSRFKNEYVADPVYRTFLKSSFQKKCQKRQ
Phosphoethanolamine/phosphocholine phosphatase, sequence (Q8TCT1 whole entry): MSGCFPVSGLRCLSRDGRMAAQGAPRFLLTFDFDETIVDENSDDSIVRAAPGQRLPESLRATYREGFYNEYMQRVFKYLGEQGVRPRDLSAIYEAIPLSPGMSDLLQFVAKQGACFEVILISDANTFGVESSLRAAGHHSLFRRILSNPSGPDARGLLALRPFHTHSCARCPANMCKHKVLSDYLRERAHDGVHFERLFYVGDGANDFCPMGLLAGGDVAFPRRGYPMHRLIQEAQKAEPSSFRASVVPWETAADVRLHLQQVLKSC
Tyrosyl-DNA phosphodiesterase 2, sequence (O95551 whole entry): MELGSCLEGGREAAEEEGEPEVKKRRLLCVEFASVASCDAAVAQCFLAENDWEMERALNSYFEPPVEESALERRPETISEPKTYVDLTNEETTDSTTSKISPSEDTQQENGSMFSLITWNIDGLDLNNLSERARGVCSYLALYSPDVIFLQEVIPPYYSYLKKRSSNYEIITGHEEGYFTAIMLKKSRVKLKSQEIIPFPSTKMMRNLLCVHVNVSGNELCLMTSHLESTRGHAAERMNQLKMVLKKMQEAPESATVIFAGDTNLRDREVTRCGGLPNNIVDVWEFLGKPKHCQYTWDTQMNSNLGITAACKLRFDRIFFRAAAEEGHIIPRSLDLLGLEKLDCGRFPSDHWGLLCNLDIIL
Sphingosine 1-phosphate receptor 3, sequence (Q99500 whole entry): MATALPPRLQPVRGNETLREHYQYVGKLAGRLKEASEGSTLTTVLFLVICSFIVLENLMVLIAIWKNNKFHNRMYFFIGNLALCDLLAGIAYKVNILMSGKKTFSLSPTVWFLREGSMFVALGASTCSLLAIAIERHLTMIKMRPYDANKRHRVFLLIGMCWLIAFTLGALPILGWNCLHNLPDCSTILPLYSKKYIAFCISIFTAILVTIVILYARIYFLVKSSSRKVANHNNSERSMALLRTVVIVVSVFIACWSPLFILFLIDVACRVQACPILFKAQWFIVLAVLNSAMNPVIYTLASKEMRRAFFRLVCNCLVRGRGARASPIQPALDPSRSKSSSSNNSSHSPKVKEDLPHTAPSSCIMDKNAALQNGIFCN
Trypsin, sequence (P00761 whole entry): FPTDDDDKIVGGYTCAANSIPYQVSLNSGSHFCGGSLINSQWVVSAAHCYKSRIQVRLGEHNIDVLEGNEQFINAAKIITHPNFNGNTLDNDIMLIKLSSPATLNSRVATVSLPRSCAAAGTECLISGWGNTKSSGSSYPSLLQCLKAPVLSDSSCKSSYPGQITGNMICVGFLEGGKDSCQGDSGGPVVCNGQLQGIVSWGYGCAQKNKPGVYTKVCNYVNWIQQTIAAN
CAAX prenyl protease 1, sequence (P47154 whole entry): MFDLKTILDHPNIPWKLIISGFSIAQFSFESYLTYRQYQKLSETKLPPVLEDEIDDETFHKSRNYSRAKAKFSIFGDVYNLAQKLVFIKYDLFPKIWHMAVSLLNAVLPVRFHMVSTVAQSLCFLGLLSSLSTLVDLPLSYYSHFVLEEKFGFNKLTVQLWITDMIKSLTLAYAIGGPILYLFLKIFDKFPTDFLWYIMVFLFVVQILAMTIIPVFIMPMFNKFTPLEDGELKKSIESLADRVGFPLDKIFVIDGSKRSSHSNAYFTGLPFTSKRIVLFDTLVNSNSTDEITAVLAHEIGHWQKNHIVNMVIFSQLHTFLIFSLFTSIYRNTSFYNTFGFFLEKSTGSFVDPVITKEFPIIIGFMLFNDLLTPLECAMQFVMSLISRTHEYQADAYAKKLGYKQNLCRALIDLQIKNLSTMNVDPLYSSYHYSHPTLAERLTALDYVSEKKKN
Sphingosine 1-phosphate receptor 1, sequence (P21453 whole entry): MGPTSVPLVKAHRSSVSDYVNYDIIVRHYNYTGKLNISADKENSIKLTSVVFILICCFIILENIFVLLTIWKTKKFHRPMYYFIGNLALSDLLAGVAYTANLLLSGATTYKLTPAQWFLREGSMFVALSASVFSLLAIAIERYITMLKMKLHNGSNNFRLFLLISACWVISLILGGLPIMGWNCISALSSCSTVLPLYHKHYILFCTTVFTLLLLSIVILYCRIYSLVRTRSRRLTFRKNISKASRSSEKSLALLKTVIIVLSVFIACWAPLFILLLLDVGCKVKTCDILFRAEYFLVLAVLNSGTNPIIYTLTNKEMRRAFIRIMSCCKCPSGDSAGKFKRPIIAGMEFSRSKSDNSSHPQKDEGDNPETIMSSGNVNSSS
Sphingosine 1-phosphate receptor 2, sequence (O95136 whole entry): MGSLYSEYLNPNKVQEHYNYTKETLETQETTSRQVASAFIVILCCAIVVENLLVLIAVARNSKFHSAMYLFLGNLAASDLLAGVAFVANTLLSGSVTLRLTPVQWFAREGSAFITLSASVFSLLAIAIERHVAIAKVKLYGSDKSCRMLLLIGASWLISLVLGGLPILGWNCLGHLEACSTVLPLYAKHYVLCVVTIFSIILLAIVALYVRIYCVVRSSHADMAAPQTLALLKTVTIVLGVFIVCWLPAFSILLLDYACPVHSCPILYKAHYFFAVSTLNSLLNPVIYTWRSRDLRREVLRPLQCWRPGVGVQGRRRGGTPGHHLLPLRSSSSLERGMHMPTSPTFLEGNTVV
DNA dC->dU-editing enzyme APOBEC-3G, sequence (Q9HC16 whole entry): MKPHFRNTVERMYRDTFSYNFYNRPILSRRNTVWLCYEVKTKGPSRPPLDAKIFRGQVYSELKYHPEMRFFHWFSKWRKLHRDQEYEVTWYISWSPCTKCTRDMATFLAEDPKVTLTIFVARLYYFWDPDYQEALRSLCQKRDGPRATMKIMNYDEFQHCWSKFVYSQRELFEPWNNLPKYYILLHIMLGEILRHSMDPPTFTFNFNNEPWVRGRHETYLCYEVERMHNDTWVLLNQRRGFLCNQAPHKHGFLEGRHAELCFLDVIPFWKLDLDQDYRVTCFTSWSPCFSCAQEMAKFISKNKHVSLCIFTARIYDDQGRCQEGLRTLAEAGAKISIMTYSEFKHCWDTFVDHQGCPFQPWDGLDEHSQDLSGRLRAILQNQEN
Sphingosine 1-phosphate receptor 5, sequence (Q9H228 whole entry): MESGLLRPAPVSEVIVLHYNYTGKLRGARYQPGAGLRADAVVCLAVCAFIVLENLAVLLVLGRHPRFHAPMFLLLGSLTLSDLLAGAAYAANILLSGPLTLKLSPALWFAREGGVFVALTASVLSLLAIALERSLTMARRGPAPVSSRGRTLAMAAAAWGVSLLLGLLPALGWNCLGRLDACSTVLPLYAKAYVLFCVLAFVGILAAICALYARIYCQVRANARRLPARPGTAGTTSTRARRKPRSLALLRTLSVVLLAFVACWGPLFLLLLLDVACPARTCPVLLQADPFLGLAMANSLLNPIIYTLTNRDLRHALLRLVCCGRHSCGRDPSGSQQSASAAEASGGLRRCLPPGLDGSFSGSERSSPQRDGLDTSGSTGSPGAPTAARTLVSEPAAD
Phosphomannomutase 2, sequence (O15305 whole entry): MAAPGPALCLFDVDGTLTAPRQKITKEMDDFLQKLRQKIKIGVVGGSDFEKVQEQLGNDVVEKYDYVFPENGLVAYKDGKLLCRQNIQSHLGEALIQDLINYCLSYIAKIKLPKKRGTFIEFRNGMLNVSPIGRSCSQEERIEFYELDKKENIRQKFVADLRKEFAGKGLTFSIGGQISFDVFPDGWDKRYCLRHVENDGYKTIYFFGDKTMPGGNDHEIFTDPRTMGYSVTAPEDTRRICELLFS

As to `Sc1nnc(-c2cc(-c3ccccc3)[nH]n2)n1N=Cc1c(Cl)cccc1Cl`, the 50% inhibitory concentration (IC50) in [1] is 82 µM (active).

Regarding `O=C1NC(=O)C(Sc2ccccc2[N+](=O)[O-])C(=O)N1`, the AC50 in [2] was 2.28 µM (active); in [5], 1.23 µM (active). The IC50 in [3] is 36.3 µM (inactive); in [4], 52.7 µM (active).

As for `CCOc1ccc(OC)cc1-c1ccc(C(=O)Nc2c(C)cccc2CC)o1`, the IC50 in [6] was > 25 µM (inactive); in [7], > 25 µM (inactive); in data set [8], 19.2 µM (inactive); in [9], 0.414 µM (active); in data set [10], > 25 µM (inactive).

`COc1ccccc1NC(=O)Cc1nn(C)c(=O)c2ccccc12`: the IC50 in data set [11] was 3.14 µM (active); in data set [12], 2.11 µM (active). For the same compound, the AC50 is 2.05 µM (active) in data set [13], 1.97 µM (active) in data set [14] and 58.6 µM (active) in data set [15].

As to `Cc1ccc(C)c(N2Cc3ccccc3C2=O)c1`, the IC50 in [16], in [17], in data set [18] and in data set [19] was > 100 µM (inactive) each time.

With `N#CC[N+]1(Cc2ccccn2)CCCC1.O=S(=O)([O-])c1ccccc1`, the half-maximal activity concentration (AC50) result in data set [20] is “inactive”.

Consider `COc1cccc2c(O)c(C(=O)O)cnc12`, for which the AC50 was 36 µM (active) in data set [21], 64.1 µM (active) in data set [22] and 6.84 µM (active) in [23].
